Paper PMC6563162 (Viruses, 2019)

What was measured:
Assay in all cases: flow cytometry, inhibition of purified knob binding to HCE cells
Assay type in all cases: cell-based
Conditions in all cases: knob preincubated with ME0462, 1 h, 4 °C; human corneal epithelial cells
HAdV-D54 fiber knob = biological target: T1, HAdV-D54 fiber knob (Human adenovirus 54, UniProt B9A5P2)
T1 construct: gene L5

HAdV-D8/53 fiber knob = biological target: T2, HAdV-D8/53 fiber knob (Human adenovirus D8, UniProt P36845)
T2 construct: gene L5

HAdV-D37/64 fiber knob = biological target: T3, HAdV-D37/64 fiber knob (Human adenovirus D37, UniProt Q64823)
T3 construct: gene L5; N-terminal RGS-His tag kept (pQE30-Xa); E. coli M15; Ni-NTA and Q-sepharose

ME0462
% inhibition at 80 μM (HAdV-D54 fiber knob): 60% | % inhibition at 80 μM (HAdV-D8/53 fiber knob): 60% | % inhibition at 80 μM (HAdV-D37/64 fiber knob): 70%
